“And” between values parts separate entries of the source, which are not always exact repeats. Equal values may be shown once. Inconclusive results and toxic doses are left out. No stated cut-off is given here; in the data, active means T/C of 150% or more; inactive means T/C below 125%.
Tested on: L1210 leukemia ip in BDF1 mice, survival T/C
Assay: NCI In Vivo Anticancer Drug Screen. Data for tumor model L1210 Leukemia (intraperitoneal) in B6D2F1 (BDF1) mice
Conditions: endpoint: mean survival time, higher = longer survival
Method in brief: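 Read-out is survival time, reported as the treated-group measurement over the vehicle-control measurement.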

[1] = dose: 100.0 mg/kg/injection, schedule: Q01DX001 (ip), vehicle: saline
[2] = dose: 200.0 mg/kg/injection, schedule: Q01DX001 (ip), vehicle: saline
[3] = dose: 400.0 mg/kg/injection, schedule: Q01DX001 (ip), vehicle: saline
[4] = dose: 25.0 mg/kg/injection, schedule: Q01DX009 (ip), vehicle: Klucel (hydroxypropylcellulose) (HPC)
[5] = dose: 100.0 mg/kg/injection, schedule: Q01DX009 (ip), vehicle: Klucel (hydroxypropylcellulose) (HPC)
[6] = dose: 100.0 mg/kg/injection, schedule: Q01DX009 (ip), vehicle: saline with Tween-80
[7] = dose: 100.0 mg/kg/injection, schedule: Q04DX003 (ip), vehicle: Klucel (hydroxypropylcellulose) (HPC)
[8] = dose: 100.0 mg/kg/injection, schedule: Q04DX003 (ip), vehicle: saline with Tween-80
[9] = dose: 200.0 mg/kg/injection, schedule: Q01DX009 (ip), vehicle: saline with Tween-80
[10] = dose: 200.0 mg/kg/injection, schedule: Q04DX003 (ip), vehicle: Klucel (hydroxypropylcellulose) (HPC)
[11] = dose: 200.0 mg/kg/injection, schedule: Q04DX003 (ip), vehicle: saline with Tween-80
[12] = dose: 400.0 mg/kg/injection, schedule: Q04DX003 (ip), vehicle: Klucel (hydroxypropylcellulose) (HPC)
[13] = dose: 400.0 mg/kg/injection, schedule: Q04DX003 (ip), vehicle: saline with Tween-80
[14] = dose: 50.0 mg/kg/injection, schedule: Q01DX001 (ip), vehicle: saline
[15] = dose: 400.0 mg/kg/injection, schedule: Q01DX009 (ip), vehicle: saline with Tween-80
[16] = dose: 200.0 mg/kg/injection, schedule: Q01DX009 (ip), vehicle: Klucel (hydroxypropylcellulose) (HPC)
[17] = dose: 100.0 mg/kg/injection, schedule: Q01DX001 (ip), vehicle: saline with Tween-80
[18] = dose: 200.0 mg/kg/injection, schedule: Q01DX001 (ip), vehicle: saline with Tween-80
[19] = dose: 400.0 mg/kg/injection, schedule: Q01DX001 (ip), vehicle: saline with Tween-80
[20] = dose: 100.0 mg/kg/injection, schedule: Q01DX001 (ip), vehicle: carboxymethylcellulose (CMC)
[21] = dose: 200.0 mg/kg/injection, schedule: Q01DX001 (ip), vehicle: carboxymethylcellulose (CMC)

Measured: T/C

CCCCCCC1CC(=O)CC(=O)C1
inactive: [1] 101 % of control | [2] 98 % of control | [3] 95 % of control

CCN(CC)CCNc1ncnc2c1cnn2-c1ccc(Cl)cc1
inactive: [4] 95 % of control | dose: 50.0 mg/kg/injection, schedule: Q01DX009 (ip), vehicle: Klucel (hydroxypropylcellulose) (HPC) 95 % of control | [5] 92 % of control | [6] 101 % of control | [7] 95 % of control | [8] 103 % of control | dose: 150.0 mg/kg/injection, schedule: Q01DX009 (ip), vehicle: Klucel (hydroxypropylcellulose) (HPC) 101 % of control | [9] 95 % of control | [10] 95 % of control | [11] 94 % of control | dose: 225.0 mg/kg/injection, schedule: Q01DX009 (ip), vehicle: Klucel (hydroxypropylcellulose) (HPC) 93 % of control | dose: 335.0 mg/kg/injection, schedule: Q01DX009 (ip), vehicle: Klucel (hydroxypropylcellulose) (HPC) 87 % of control | [12] 95 % of control | [13] 103 % of control

NC(=O)NNC1OCC(O)C(O)C1O (stereo not given)
inactive: dose: 100.0 mg/kg/injection, schedule: Q01DX009 (ip), vehicle: saline 90 % of control | dose: 100.0 mg/kg/injection, schedule: Q04DX003 (ip), vehicle: water 96 % of control | dose: 200.0 mg/kg/injection, schedule: Q01DX009 (ip), vehicle: saline 95 % of control | dose: 200.0 mg/kg/injection, schedule: Q04DX003 (ip), vehicle: water 96 % of control | dose: 400.0 mg/kg/injection, schedule: Q01DX009 (ip), vehicle: saline 97 % of control | dose: 400.0 mg/kg/injection, schedule: Q04DX003 (ip), vehicle: water 97 % of control

c1ccc(C(NC2=NCCCCCC2)c2ccco2)cc1 (stereo not given)
inactive: dose: 12.5 mg/kg/injection, schedule: Q01DX009 (ip), vehicle: Klucel (hydroxypropylcellulose) (HPC) 98 % of control | [4] 100 % of control

Cn1/c(=N/N=C(N)N)ccc2ccccc21
inactive: dose: 15.0 mg/kg/injection, schedule: Q01DX Z (ip), vehicle: methylcellulose (MC) 100 % of control | dose: 30.0 mg/kg/injection, schedule: Q01DX Z (ip), vehicle: methylcellulose (MC) 108 % of control | dose: 30.0 mg/kg/injection, schedule: Q01DX Z (oral), vehicle: methylcellulose (MC) 95 % of control | dose: 60.0 mg/kg/injection, schedule: Q01DX Z (ip), vehicle: methylcellulose (MC) 107 % of control | dose: 60.0 mg/kg/injection, schedule: Q01DX Z (oral), vehicle: methylcellulose (MC) 101 % of control | dose: 120.0 mg/kg/injection, schedule: Q01DX Z (ip), vehicle: methylcellulose (MC) 103 % of control | dose: 120.0 mg/kg/injection, schedule: Q01DX Z (oral), vehicle: methylcellulose (MC) 97 % of control | dose: 240.0 mg/kg/injection, schedule: Q01DX Z (ip), vehicle: methylcellulose (MC) 98 % of control | dose: 240.0 mg/kg/injection, schedule: Q01DX Z (oral), vehicle: methylcellulose (MC) 95 % of control | dose: 375.0 mg/kg/injection, schedule: Q01DX Z (oral), vehicle: methylcellulose (MC) 95 % of control

CO[CH2][Pb]([c]1ccccc1)([c]1ccccc1)[c]1ccccc1
inactive: dose: 100.0 mg/kg/injection, schedule: Q04DX002 (ip), vehicle: saline with Tween-80 98 % of control | dose: 200.0 mg/kg/injection, schedule: Q04DX002 (ip), vehicle: saline with Tween-80 94 % of control | dose: 400.0 mg/kg/injection, schedule: Q04DX002 (ip), vehicle: saline with Tween-80 94 % of control

O=C(CCCC(=O)NNC(=O)Nc1cc(Cl)ccc1Cl)NNC(=O)Nc1cc(Cl)ccc1Cl
inactive: [14] 108 % of control | [1] 102 % of control | [2] 102 % of control | [3] 102 % of control

N#CC1(c2ccc3c(c2)OCO3)C(c2ccc3c(c2)OCO3)CC(O)(c2ccccc2)C1C(=O)c1ccccc1 (stereo not given)
inactive: [6] 96 % of control | [9] 89 % of control | [15] 102 % of control

COc1cc(NS(=O)(=O)c2ccc(C(C)=O)cc2)nc(OC)n1
inactive: [5] 94 % of control | [16] 102 % of control | dose: 400.0 mg/kg/injection, schedule: Q01DX009 (ip), vehicle: Klucel (hydroxypropylcellulose) (HPC) 98 % of control

O=C1Cc2ccccc2CN1
inactive: dose: 75.0 mg/kg/injection, schedule: Q01DX001 (ip), vehicle: acetone 100 % of control | dose: 150.0 mg/kg/injection, schedule: Q01DX001 (ip), vehicle: acetone 97 % of control

O=C(O)/C=C(\Cl)c1ccccc1
inactive: [14] 112 % of control | [1] 112 % of control | [2] 104 % of control | [3] 106 % of control

CC(C)N1CC(C)(C)N=C1C(C#N)c1cnc2ccccc2n1 (stereo not given)
inactive: [1] 98 % of control | [2] 94 % of control | [3] 94 % of control

O=C1/C(=C\c2ccccc2Cl)N2CCC1CC2
inactive: [17] 94 % of control | [18] 109 % of control | [19] 93 % of control

[I][Bi]([I])[I]
inactive: dose: 50.0 mg/kg/injection, schedule: Q01DX001 (ip), vehicle: carboxymethylcellulose (CMC) 114 % of control | [20] 105 % of control | [1] 108 % of control | [21] 102 % of control | [2] 94 % of control | [3] 97 % of control

CS(=O)(=O)CC(=O)c1ccc(O)cc1O
inactive: [17] 106 % of control | [18] 103 % of control | [19] 95 % of control

NC(=O)c1nc2c([nH]c1=O)CCCC2
inactive: [6] 94 % of control | [8] 93 % of control | [9] 94 % of control | [11] 94 % of control | [15] 94 % of control | [13] 94 % of control

Cc1ccc(S(=O)(=O)N2C=Cc3ccccc3CC2)cc1
inactive: [20] 107 % of control | [21] 100 % of control | dose: 400.0 mg/kg/injection, schedule: Q01DX001 (ip), vehicle: carboxymethylcellulose (CMC) 112 % of control

S=C(Nc1ccccc1)Nc1ccc(Cl)c(Cl)c1
inactive: dose: 12.5 mg/kg/injection, schedule: Q01DX009 (ip), vehicle: saline with Tween-80 95 % of control | dose: 25.0 mg/kg/injection, schedule: Q01DX009 (ip), vehicle: saline with Tween-80 92 % of control and 90 % of control | dose: 50.0 mg/kg/injection, schedule: Q01DX009 (ip), vehicle: saline with Tween-80 105 % of control | [6] 87 % of control and 91 % of control

Cc1cc(C(C)C)cc(C(C)C)c1
inactive: [5] 96 % of control | [7] 94 % of control | [16] 95 % of control | [10] 102 % of control | [12] 94 % of control

C[N+]1(C)C2CCCC1CC(=O)C2
inactive: dose: 150.0 mg/kg/injection, schedule: Q01DX001 (ip), vehicle: saline 107 % of control

NNC(=O)CCNCCC(=O)NN
inactive: dose: 100.0 mg/kg/injection, schedule: Q04DX002 (ip), vehicle: saline + alcohol 94 % of control | dose: 200.0 mg/kg/injection, schedule: Q04DX002 (ip), vehicle: saline + alcohol 88 % of control

— PubChem BioAssay AID248 (DTP/NCI, 2004)
